What was measured:
[1] = system: tumors; conditions: clinical results, magnetic resonance imaging; cited from earlier work
[2] = system: brain metastases; conditions: clinical results, MRI long after administration; cited from earlier work
[3] = system: brain metastases; assay: MRI of brain metastases after MGd (FIG. 1A, 1B); assay type: in vivo, human
Source text: In particular, sections 20, 21, and 22 on the right panel (MGd+standard contrast) show brain metastases not visible in sections 20, 21, and 22 on the left panel (standard Gd contrast).

[4] = system: brain metastases from solid tumors; conditions: patients with brain metastases from solid tumors receiving WBRT; cited from earlier work
[5] = system: tumors; conditions: cited from earlier work

| SMILES | biolocalization in tumors [1] | tumor selectivity, depiction of brain metastases at MRI [2] | MRI enhancement of brain metastases versus standard Gd contrast ([3]; FIG. 1A, MGd+standard contrast vs standard Gd contrast) | localization in brain metastases on MRI ([3]; FIG. 1B, brain metastases from NSCLC, post MGd without contrast) | neurological progression incl. neurologic and neurocognitive function [4] | accumulation in tumors ([5]; clinical results) | well tolerated dose ([5]; clinical results) | radiologic response rate ([5]; combined with WBRT of 30 Gy in 10 fractions) |
| --- | --- | --- | --- | --- | --- | --- | --- | --- |
| CC(=O)[O-].CC(=O)[O-].CCc1c(CC)c2cc3nc(cnc4cc(OCCOCCOCCOC)c(OCCOCCOCCOC)cc4ncc4nc(cc1[n-]2)C(CCCO)=C4C)C(C)=C3CCCO.O.[Gd+3] [Gd-Tex, Gadolinium Texaphyrin] | selective biolocolization in tumors | tumor selective | – | – | – | – | – | – |
| CC(=O)[O-].CC(=O)[O-].CCc1c(CC)c2cc3nc(cnc4cc(OCCOCCOCCOC)c(OCCOCCOCCOC)cc4ncc4nc(cc1[n-]2)C(CCCO)=C4C)C(C)=C3CCCO.O.[Gd+3] [MGd, motexafin gadolinium] | – | – | enhances brain metastases not visible with standard Gd contrast | localization in brain metastases from NSCLC | provides benefit to patient's neurological progression | selectively accumulated in tumors | up to 6.3 mg/kg | high radiologic response rate |

From US20070219174A1, “METHODS OF TREATING CANCER USING HYPOFRACTIONATED RADIATION AND TEXAPHYRINS” (Pharmacyclics, Inc., priority 2006, published 2007)
